# Laboratory results: paper PMC10245146, “CNS4 causes subtype‐specific changes in agonist efficacy and reversal potential of permeant cations in NMDA receptors” (Pharmacology Research & Perspectives, 2023)
# Values joined by “and” are separate entries in the source; they are usually repeats but may differ in a detail not shown here. Equal values may be shown once.
# What was measured:
# Format in all cases: cell-based
# GluN1/2A NMDA receptors [1] = molecular target: T1, GluN1/2A NMDA receptors (UniProt P35439+Q12879); experiment: Current-voltage (I-V) relationship, Xenopus oocytes expressing 1/2A; details: for Difference in reversal potential (∆Erev) between W and WO CNS4 / Difference in reversal potential (∆Erev) between WO and W CNS4: 100 μM CNS4; for Reversal potential (Erev): with 100 μM CNS4
# T1 construct: expressed in transfected cells; host or cells: Xenopus oocytes (cRNA injection)
# T1 sequence (Q12879 23-1464, other chains not shown): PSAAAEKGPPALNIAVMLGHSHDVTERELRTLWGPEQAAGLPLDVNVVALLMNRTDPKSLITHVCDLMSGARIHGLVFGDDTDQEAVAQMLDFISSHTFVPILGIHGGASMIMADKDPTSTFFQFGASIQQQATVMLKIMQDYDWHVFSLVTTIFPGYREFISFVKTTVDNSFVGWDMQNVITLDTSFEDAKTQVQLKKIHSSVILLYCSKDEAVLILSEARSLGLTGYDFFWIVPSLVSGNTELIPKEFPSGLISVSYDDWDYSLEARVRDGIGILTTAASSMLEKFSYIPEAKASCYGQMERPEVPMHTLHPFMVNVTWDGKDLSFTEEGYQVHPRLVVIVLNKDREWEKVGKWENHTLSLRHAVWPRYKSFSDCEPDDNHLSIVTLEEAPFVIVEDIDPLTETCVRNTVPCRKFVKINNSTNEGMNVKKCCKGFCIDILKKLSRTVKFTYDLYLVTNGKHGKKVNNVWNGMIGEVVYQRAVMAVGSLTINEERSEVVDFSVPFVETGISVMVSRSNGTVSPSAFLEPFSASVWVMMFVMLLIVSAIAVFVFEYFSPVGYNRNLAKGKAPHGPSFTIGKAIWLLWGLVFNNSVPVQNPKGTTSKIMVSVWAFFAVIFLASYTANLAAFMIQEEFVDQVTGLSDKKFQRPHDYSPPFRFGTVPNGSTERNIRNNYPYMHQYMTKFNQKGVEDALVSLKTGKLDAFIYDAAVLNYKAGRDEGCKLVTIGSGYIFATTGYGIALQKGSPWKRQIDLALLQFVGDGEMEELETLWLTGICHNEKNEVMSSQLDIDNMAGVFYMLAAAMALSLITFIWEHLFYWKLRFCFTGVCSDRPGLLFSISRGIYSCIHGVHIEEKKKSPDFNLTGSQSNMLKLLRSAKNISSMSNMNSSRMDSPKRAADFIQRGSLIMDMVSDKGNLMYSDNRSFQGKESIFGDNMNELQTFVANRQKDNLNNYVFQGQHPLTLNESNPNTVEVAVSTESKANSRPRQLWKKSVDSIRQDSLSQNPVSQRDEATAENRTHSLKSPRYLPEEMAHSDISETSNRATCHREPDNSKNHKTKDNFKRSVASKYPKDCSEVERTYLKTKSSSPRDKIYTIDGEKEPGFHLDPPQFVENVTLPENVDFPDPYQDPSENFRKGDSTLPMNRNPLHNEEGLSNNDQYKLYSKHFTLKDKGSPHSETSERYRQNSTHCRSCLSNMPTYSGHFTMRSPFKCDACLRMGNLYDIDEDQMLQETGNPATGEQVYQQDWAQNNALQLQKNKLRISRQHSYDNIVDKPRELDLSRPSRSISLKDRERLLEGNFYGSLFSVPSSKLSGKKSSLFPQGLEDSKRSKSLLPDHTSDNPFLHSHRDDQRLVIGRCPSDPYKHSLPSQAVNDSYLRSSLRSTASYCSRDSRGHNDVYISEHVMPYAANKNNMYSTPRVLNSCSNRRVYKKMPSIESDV
# Description: There are two sets of recording solutions used for the I‐V assay: solutions with normal (1) and low (2) Ca^2+ concentrations. The normal Ca^2+ solutions contained (mM): 115 NaCl, 1 KCl, 1.8 CaCl2, 10 HEPES. PH was adjusted to 7.2. Low calcium solutions contained 0.018 mM CaCl2 and other components were the same as normal Ca^2+ solution. To study the effects of CNS4 in the absence of extracellular Na^+, NaCl was replaced with impermeable agent, N‐methyl‐D‐glucamine (NMDG, […]). HCl was used to dissolve the NMDG and to adjust the PH to 7.2. NMDG‐containing solutions are termed Nafree. […] There were four different agonist solutions used for each set of Ca^2+ recordings: (1) Agonist, (2) Agonist+CNS4, (3) Agonist in Nafree solution, (4) Agonist+CNS4 in Nafree solution. Each solution was applied to the oocytes in sequential order and the same order was followed for all I‐V recordings. Low Ca^2+ experiments were carried out in the same way as normal Ca^2+ experiments, except that they had 0.018 mM Ca^2+ in all four agonist and recording solutions. Steady state current responses evoked by these solutions at each voltage step were measured. Reversal potentials (Erev) were obtained from x‐intercept values when y = 0 after fitting the I‐V data using a third order polynomial, non‐linear curve fitting equation Y=B0+B1^*X+B2^*X^2+B3^*X^3 . Erev obtained from each oocyte with different agonists were compared in a pairwise manner. These differences were then averaged. Paired or unpaired student t‐test was performed to compare the data as mentioned in each figure legend.
# FIGURE 5 Effect on CNS4 on agonist induced current directions in 1/2A receptors. Current –Voltage (I‐V) relationship of 1/2A receptors was studied with normal (A) and low (B) CaCl2 containing extracellular solutions. […] (C) Comparison of reversal potentials values. Dark and light blue circles indicate normal and low CaCl2 experiments, respectively. Dark and light red squares indicate equivalent I‐V experiments with NMDG (Nafree). Dotted and thick lines denote the absence (empty circles or squares) and presence (filled circles or squares) of 100 μM CNS4, respectively. Traces (Ai&ii, Bi&ii) represent the current response at −90 mv. N = 5 (5) & n = 7(7) for normal & low Ca^2+ assays, respectively. Erev obtained from each oocyte with different agonists were compared in a pairwise manner. Paired student t‐test was performed to compare the data presented at Ci. Unpaired student's t‐test was performed to compare the difference in reversal potentials (triangles). *p < .05, **p < .01, ***p < .001, […].
# GluN1/2D NMDA receptors = molecular target: T2, GluN1/2D NMDA receptors (UniProt O15399+P35439); experiment: TEVC agonist dose-response, Xenopus oocytes expressing 1/2D
# T2 construct: host or cells: Xenopus oocytes (cRNA injection)
# T2 sequence (O15399 28-1336, other chains not shown): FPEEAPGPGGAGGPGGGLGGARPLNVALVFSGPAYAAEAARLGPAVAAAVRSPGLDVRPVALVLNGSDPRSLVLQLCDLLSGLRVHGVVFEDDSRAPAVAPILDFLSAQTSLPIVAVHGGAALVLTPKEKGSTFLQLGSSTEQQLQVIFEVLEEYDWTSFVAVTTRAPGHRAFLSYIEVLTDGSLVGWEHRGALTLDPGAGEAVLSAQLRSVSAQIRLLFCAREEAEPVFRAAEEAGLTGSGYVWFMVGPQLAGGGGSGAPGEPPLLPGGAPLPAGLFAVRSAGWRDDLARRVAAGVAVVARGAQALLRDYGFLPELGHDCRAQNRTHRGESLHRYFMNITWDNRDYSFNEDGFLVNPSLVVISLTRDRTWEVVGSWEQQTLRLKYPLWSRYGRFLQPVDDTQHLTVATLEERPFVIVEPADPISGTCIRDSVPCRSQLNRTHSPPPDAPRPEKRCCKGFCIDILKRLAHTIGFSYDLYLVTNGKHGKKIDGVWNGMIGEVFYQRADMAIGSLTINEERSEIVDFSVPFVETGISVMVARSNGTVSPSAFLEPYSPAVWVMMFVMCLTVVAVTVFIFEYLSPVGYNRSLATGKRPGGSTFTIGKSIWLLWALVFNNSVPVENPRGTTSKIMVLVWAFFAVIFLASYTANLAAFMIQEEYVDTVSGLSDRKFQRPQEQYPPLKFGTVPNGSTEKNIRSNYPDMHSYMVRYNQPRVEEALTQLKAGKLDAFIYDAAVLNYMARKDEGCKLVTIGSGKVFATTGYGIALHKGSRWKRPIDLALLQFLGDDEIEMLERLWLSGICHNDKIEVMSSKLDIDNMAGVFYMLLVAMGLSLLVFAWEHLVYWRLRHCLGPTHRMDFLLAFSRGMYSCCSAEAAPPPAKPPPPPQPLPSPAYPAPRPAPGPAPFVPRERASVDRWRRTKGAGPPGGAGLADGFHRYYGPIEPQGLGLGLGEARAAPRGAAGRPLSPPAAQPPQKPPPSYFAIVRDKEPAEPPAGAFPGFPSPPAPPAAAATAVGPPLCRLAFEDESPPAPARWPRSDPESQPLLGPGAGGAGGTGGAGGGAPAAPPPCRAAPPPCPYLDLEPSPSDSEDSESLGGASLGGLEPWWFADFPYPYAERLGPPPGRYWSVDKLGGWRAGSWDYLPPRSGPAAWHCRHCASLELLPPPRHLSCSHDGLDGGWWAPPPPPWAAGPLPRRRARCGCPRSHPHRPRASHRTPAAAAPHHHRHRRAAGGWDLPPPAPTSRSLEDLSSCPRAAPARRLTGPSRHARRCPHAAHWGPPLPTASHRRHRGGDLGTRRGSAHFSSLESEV
# Description: (§1) NMDA receptor constructs: cDNA encoding the NMDA receptor1a subunit (GluN1a) was obtained from Dr. Nakanishi (Kyoto, Japan). cDNA encoding the GluN2B (pci_sepGluN2B), originally developed in the Malinow lab,[33] was purchased from Addgene (cat# 23998), Cambridge, MA. cDNA encoding the GluN2C and GluN2D were purchased from GenScript, New Jersey, USA. Mutated GluN1, 2A and 2B cDNA constructs capable of assembling as GluN1/2A/2B triheteromeric (1/2AB) receptors[34] were obtained from Dr. Paoletti (Laboratoire de Neurobiologie, CNRS). These constructs have been previously tested for 1/2AB receptor activity of GluN1/2A receptor‐selective potentiators.[35] […] Plasmids were linearized with NotI (GluN1a and all five GluN1 mutants) or Avrll (GluN2B), or BstB1 (GluN2C and GluN2D) and transcribed in vitro with T7 (GluN1a, GluN1/2A, GluN2B, GluN2C & GluN2D), and SP6 (GluN1 mutants) RNA polymerase using the mMessage mMachine transcription kits (Invitrogen by Thermo Fisher Scientific).
# (§2) Stage IV frog oocytes were obtained from Xenopus‐I, (Ann Arbor, MI, USA). NMDA receptor subunit cRNAs were suspended in nuclease free sterile water. GluN1A, GluN2B, GluN2C, GluN2D and GluN1/2A/2B cRNAs were mixed in a ratio of 1:1–3. 50 nL of the final cRNA mixture was microinjected (40–70 ng total) into the oocyte cytoplasm. Oocytes were incubated in ND‐96 solution at 18°C prior to electrophysiological recordings (2–5 days).
# (§3) Electrophysiological responses were measured using a standard two‐microelectrode voltage‐clamp workstation (Warner Instruments model OC‐725C) designed to provide a fast clamp of large cells. The recording buffer contained 116 mM NaCl, 2 mM KCl, 0.3 mM BaCl2, and 5 mM HEPES, pH 7.4. Response magnitude was determined in Xenopus oocytes expressing different NMDA receptor subunits (GluN1/2A, 1/2B, 1/2C, 1/2D, and 1/2A/2B) by the steady plateau response elicited by bath application of different agonist concentrations. […] All data points were obtained from the steady state currents unless stated otherwise. Dose–response relationships were fit to an appropriate curve‐fitting equation using GraphPad Prism‐7. Non‐linear regression was used to calculate EC50, IC50, and fold change or percentage maximal response. Curves were fit using the following equations as performed in the previous studies, [37]: Y=100/1+10^LogEC50−XorY=Bottom+Top−Bottom/1+10^LogEC50−X . Statistical significance was determined at the overall alpha level 0.05, using appropriate statistical methods as described in all figure captions. Technical and biological replicates are explicitly mentioned in each figure legend, as n = X (Y). X represents technical repeats (number of traces) and Y represents biological repeats (number of oocytes or HEK293T cells studied). […]
# GluN1/2A NMDA receptors [2] = molecular target: T1, GluN1/2A NMDA receptors; experiment: TEVC agonist dose-response, Xenopus oocytes expressing 1/2A
# Description: as §1, §2, §3
smiles,measurement,setting,value
O=C(NC(=S)N1CCCCC1c1cccnc1)c1ccc(F)cc1 (stereo not drawn) [CNS4],Difference in reversal potential (∆Erev) between W and WO CNS4,"GluN1/2A NMDA receptors [1]; low Ca2+, Nafree, n = 7",−7.32 ± 3.95 mV
same,Difference in reversal potential (∆Erev) between W and WO CNS4,"GluN1/2A NMDA receptors [1]; low Ca2+, with Na+, n = 6",8.76 ± 3.15 mV
same,Difference in reversal potential (∆Erev) between WO and W CNS4,"GluN1/2A NMDA receptors [1]; normal Ca2+, Nafree, n = 3",−6.79 ± 1.98 mV
same,Difference in reversal potential (∆Erev) between WO and W CNS4,"GluN1/2A NMDA receptors [1]; normal Ca2+, with Na+, n = 4",24.85 ± 3.26 mV
same,Reversal potential (Erev),"GluN1/2A NMDA receptors [1]; 1.8 mM (normal) Ca2+, with Na+, 100 μM glutamate + glycine, without CNS4 −12.05 ± 8.18, p = .004",10.49 ± 8.23 mV
same,Reversal potential (Erev),"GluN1/2A NMDA receptors [1]; low Ca2+, Nafree, without CNS4 −61.38 ± 3.99, p = .113",−68.71 ± 4.82 mV
same,Reversal potential (Erev),"GluN1/2A NMDA receptors [1]; normal Ca2+, Nafree (NMDG), without CNS4 −18.16 ± 5.09, p = .16",−32.93 ± 7.03 mV
same,Effect on glutamate efficacy with vs without CNS4 (insignificant),GluN1/2D NMDA receptors; 30 μM CNS4,0.8 fold
same,Increase in glycine efficacy with vs without CNS4,"GluN1/2D NMDA receptors; 30 μM CNS4, 10 μM glycine",1.89 fold and 1.9 fold
same,Glycine efficacy: relative fold change in current at highest glycine concentration,"GluN1/2D NMDA receptors; with 30 μM CNS4, 10 μM glycine, 100 μM glutamate constant, relative to 100 nM glycine, p = .0014",2.04 ± 0.19 fold
same,Glutamate efficacy: relative fold change in current at highest glutamate concentration,"GluN1/2D NMDA receptors; with 30 μM CNS4, 100 μM glycine constant, relative to 100 nM glutamate, p = .1735",6.90 ± 0.62 fold
same,100 μM glutamate induced relative current amplitude (glutamate efficacy),"GluN1/2A NMDA receptors [2]; absence of glycine, presence of CNS4, n = 6(3)",0.04 ± 0.02 fold
same,Glutamate efficacy,"GluN1/2A NMDA receptors [2]; in the presence of 30 μM glycine and 30 μM CNS4, n = 9 (3)",297.8 ± 71.06 fold
same,Glycine efficacy: relative fold change in current at highest glycine concentration,"GluN1/2A NMDA receptors [2]; with 30 μM CNS4, 100 μM glutamate constant, relative to 1 μM glycine, average ± SEM, p = .19",2.59 ± 0.36 fold
same,Glutamate efficacy: relative fold change in current at highest glutamate concentration,"GluN1/2A NMDA receptors [2]; with 30 μM CNS4, 100 μM glycine constant, relative to 1 μM glutamate, p = .2898",2.95 ± 0.45 fold
